In patent publication US11185549B2, “Combination of a PI3K-inhibitor with an androgen receptor antagonist” (priority 2017, dated 2021):
Several values for one entry are separate records, joined by “and”; a condition that tells them apart may be missing. Equal values may be shown once. Where a name gives a salt, the structure may show the parent alone. Read-outs that look alike come from different tables or passages of the source.

How the values were obtained:
[1] = tested on: VCaP human prostate cancer cells; assay: VCaP proliferation assay (CellTiter-Glo), single agents and combination index; assay type: cell-based
Protocol: (§1) Cell lines derived from human prostate cancer metastasis were used (Table 1).
(§2) After one day, the cells were treated with R1881 (10 nM) and 1 nM to 10 μM compounds (day 0). Cell number was determined following addition of CellTiter-Glo® (Promega) at day 0 and day 6. Luminescence was determined in a Victor X3 device (PerkinElmer). The inhibition of cell growth was calculated by normalization with respect to the luminescence reading (cell number) measured at the end of the experiment for cells treated with R1881 alone compared to the fluorescence reading (cell number) measured at the end of the experiment for DMSO-treated cells. […] After one day, the cells were treated with R1881 (0.1 nM) and 1 nM to 10 μM compounds (day 0). Cell number was determined following addition of CellTiter-Glo® (Promega) at day 0 and day 6. Luminescence was determined in a Victor X3 device […]. The inhibition of cell growth was calculated by normalization with respect to the luminescence reading (cell number) measured at the end of the experiment for cells treated with R1881 alone compared to the fluorescence reading (cell number) measured at the start of the experiment for DMSO-treated cells.
(§3) The Combination Index (CI) was determined for the two compound ratios closest to the ratio of the respective IC50 values of each compound alone.

mTOR = mTOR (Homo sapiens, UniProt P42345); details: cited from earlier work
PI3K isoforms = details: cited from earlier work
androgen receptor [2] = details: cited from earlier work
androgen receptor [3] = biological target: androgen receptor (Homo sapiens, UniProt P10275); details: cited from earlier work
[4] = tested on: LAPC-4 human prostate cancer cells; assay: LAPC-4 proliferation assay (CellTiter-Glo), single agents and combination index; assay type: cell-based
Protocol: as §1, §2, §3

[5] = Homo sapiens, VCaP, 144 h, VCaP cells, single agent, R1881 0.1 nM, day 6, read-out: Compound A IC50
[6] = Homo sapiens, LAPC4, 144 h, LAPC-4 cells, single agent, R1881 10 nM, day 6, read-out: Compound A IC50

Chain of androgen receptor (Homo sapiens, UniProt P10275) (P10275 whole entry, species assumed): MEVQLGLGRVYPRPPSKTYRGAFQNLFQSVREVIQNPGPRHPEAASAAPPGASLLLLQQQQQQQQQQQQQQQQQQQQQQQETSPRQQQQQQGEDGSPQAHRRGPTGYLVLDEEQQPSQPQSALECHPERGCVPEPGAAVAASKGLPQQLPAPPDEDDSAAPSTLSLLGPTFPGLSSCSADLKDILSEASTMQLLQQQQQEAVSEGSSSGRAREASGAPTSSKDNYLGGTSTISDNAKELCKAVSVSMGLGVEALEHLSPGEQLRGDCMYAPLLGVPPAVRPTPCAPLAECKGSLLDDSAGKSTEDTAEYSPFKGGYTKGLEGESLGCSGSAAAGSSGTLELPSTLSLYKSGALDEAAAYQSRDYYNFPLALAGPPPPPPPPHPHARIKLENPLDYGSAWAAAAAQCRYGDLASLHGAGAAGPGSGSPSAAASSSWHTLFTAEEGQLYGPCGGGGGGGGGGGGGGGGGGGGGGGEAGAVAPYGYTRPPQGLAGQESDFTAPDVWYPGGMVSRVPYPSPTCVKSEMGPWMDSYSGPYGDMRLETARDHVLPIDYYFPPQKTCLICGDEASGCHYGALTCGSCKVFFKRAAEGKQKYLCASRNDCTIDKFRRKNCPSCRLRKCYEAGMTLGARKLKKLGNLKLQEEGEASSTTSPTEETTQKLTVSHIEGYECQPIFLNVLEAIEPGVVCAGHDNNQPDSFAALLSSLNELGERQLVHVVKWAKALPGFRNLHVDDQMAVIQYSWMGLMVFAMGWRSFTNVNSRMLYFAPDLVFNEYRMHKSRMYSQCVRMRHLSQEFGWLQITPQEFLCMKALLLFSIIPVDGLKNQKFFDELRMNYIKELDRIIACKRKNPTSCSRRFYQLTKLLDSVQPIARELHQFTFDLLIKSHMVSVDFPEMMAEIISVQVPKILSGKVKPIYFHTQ

| IC50 [1, 5] | IC50 [4, 6] | IC50 ([4]; LAPC-4 cells, single agent, R1881 10 nM, day 6, dihydrochloride, read-out: Compound A IC50) | IC50 ([4]; LAPC-4 cells, single agent, R1881 10 nM, day 6, read-out: Compound A IC50) | SMILES | activity against mTOR (mTOR) | activity against PI3K isoforms (PI3K isoforms) | IC50 ([1]; Homo sapiens, VCaP, 144 h, read-out: Compound B IC50, VCaP cells, single agent, R1881 0.1 nM, day 6) | IC50 ([1]; read-out: Compound B IC50, VCaP cells, single agent, R1881 0.1 nM, day 6) | binding affinity for the androgen receptor (androgen receptor [2]) | inhibition of transactivation function (androgen receptor [3]) | IC50 ([4]; Homo sapiens, LAPC4, 144 h, read-out: Compound B IC50, LAPC-4 cells, single agent, R1881 10 nM, day 6) | IC50 ([4]; read-out: Compound B IC50, LAPC-4 cells, single agent, R1881 10 nM, day 6) |
| --- | --- | --- | --- | --- | --- | --- | --- | --- | --- | --- | --- | --- |
| 26 nM | – | – | – | Cn1c(=O)n(-c2ccc(C(C)(C)C#N)cc2)c2c3cc(-c4cnc5ccccc5c4)ccc3ncc21 [Dactolisib] | low nanomolar | low nanomolar | – | – | – | – | – | – |
| – | – | – | – | CC(O)c1cc(C(=O)N[C@@H](C)Cn2ccc(-c3ccc(C#N)c(Cl)c3)n2)[nH]n1 (some centres unmarked) [Darolutamide] | – | – | 350 nM | 417 nM and 557 nM | low nanomolar | high inhibition | 263 nM | 366 nM |
| 9 nM | 41 nM | 49 nM | – | COc1c(OCCCN2CCOCC2)ccc2c1N=C(NC(=O)c1cnc(N)nc1)N1CCN=C21 [Copanlisib, 2-amino-N-[7-methoxy-8-(3-morpholin-4-ylpropoxy)-2,3-dihydroimidazo[1,2-c]quinazolin-5-yl]pyrimidine-5-carboxamide dihydrochloride] | – | – | – | – | – | – | – | – |
| 52 nM | 12 nM | – | 13 nM | Cc1c(CN2CCN(C(=O)[C@H](C)O)CC2)sc2c(N3CCOCC3)nc(-c3cnc(N)nc3)nc12 [Apitolisib] | low nanomolar | low nanomolar | – | – | – | – | – | – |
